Target: GST-Bcl-2 (Homo sapiens (Human), UniProt P10415)
Assay: Time Resolved-Fluorescence Resonance Energy Transfer (TR-FRET) Bcl-2 binding assay
Details: GST-Bcl-2 1 nM, F-Bak peptide probe 100 nM, Tb-anti-GST antibody 1 nM; Ki by Wang's equation
Experimental: Determination of the utility of compounds having Formula (I) as binders to and inhibitors of anti-apoptotic Bcl-2 proteins was performed using the Time Resolved-Fluorescence Resonance Energy Transfer (TR-FRET) Assay. Tb-anti-GST antibody was purchased from Invitrogen (Catalog No. PV4216).
(§1) Representative compounds were serially diluted in dimethyl sulfoxide (DMSO) starting at 50 μM (2× starting concentration; 10% DMSO) and 10 μL were transferred into a 384-well plate. The samples are then mixed on a shaker for 1 minute and incubated for an additional 3 hours at room temperature. For each assay, the probe/antibody and protein/probe/antibody were included on each assay plate as negative and positive controls, respectively. Fluorescence was measured on the Envision (Perkin Elmer) using a 340/35 nm excitation filter and 520/525 (F-Bak peptide) and 495/510 nm (Tb-labeled anti-Histidine antibody) emission filters.
as §1, with “The” for “Representative compounds were serially diluted in dimethyl sulfoxide (DMSO) starting at 50 μM (2× starting concentration; 10% DMSO) and 10 μL were transferred into a 384-well plate. The”, “were” for “are”
The inhibition constant (Ki) is the dissociation constant of an enzyme-inhibitor complex or a protein/small molecule complex, wherein the small molecule is inhibiting binding of one protein to another protein. So a large Ki value indicates a low binding affinity and a small Ki value indicates a high binding affinity.

Chain of GST-Bcl-2 (P10415 whole entry): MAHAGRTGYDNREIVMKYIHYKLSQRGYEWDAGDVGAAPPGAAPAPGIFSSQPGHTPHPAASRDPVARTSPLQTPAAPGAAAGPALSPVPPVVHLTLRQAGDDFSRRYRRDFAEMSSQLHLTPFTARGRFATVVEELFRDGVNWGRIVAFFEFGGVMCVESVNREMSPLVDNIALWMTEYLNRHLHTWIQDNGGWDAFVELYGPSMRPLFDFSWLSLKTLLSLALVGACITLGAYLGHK

| SMILES | Ki |
| --- | --- |
| CN(C)CCOc1ccc(-c2ccc(Cl)cc2)c(CN2CCN(c3ccc(C(=O)NS(=O)(=O)c4ccc(NC5CCN(C)CC5)c([N+](=O)[O-])c4)c(Oc4cccc(Cl)c4)c3)CC2)c1 [Example 37, 4-(4-((4′-chloro-4-(2-(dimethylamino)ethoxy)-1,1′-biphenyl-2-yl)methyl)piperazin-1-yl)-2-(3-chlorophenoxy)-N-((4-((1-methylpiperidin-4-yl)amino)-3-nitrophenyl)sulfonyl)benzamide] | 5 pM |
| CN1CCC(Nc2ccc(S(=O)(=O)NC(=O)c3ccc(N4CCN(CC5=C(c6ccc(Cl)cc6)CC(C)(C)OC5)CC4)cc3Oc3ccccc3Cl)cc2[N+](=O)[O-])CC1 [Example 38, 2-(2-chlorophenoxy)-4-(4-((4-(4-chlorophenyl)-6,6-dimethyl-5,6-dihydro-2H-pyran-3-yl)methyl)piperazin-1-yl)-N-((4-((1-methylpiperidin-4-yl)amino)-3-nitrophenyl)sulfonyl)benzamide] | 13 pM |
| CN(C)CCOc1cccc(Oc2cc(N3CCN(Cc4ccccc4-c4ccc(Cl)cc4)CC3)ccc2C(=O)NS(=O)(=O)c2ccc(NCC3CCOCC3)c([N+](=O)[O-])c2)c1 [Example 39, 4-(4-((4′-chloro-1,1′-biphenyl-2-yl)methyl)piperazin-1-yl)-2-(3-(2-(dimethylamino)ethoxy)phenoxy)-N-((3-nitro-4-((tetrahydro-2H-pyran-4-ylmethyl)amino)phenyl)sulfonyl)benzamide] | 19 pM |
| CN1CCC(Nc2ccc(S(=O)(=O)NC(=O)c3ccc(N4CCN(CC5=C(c6ccc(Cl)cc6)CC(C)(C)CC5)CC4)cc3Oc3ccc(N)c(Cl)c3)cc2[N+](=O)[O-])CC1 [Example 40, 2-(4-amino-3-chlorophenoxy)-4-(4-((2-(4-chlorophenyl)-4,4-dimethylcyclohex-1-en-1-yl)methyl)piperazin-1-yl)-N-((4-((1-methylpiperidin-4-yl)amino)-3-nitrophenyl)sulfonyl)benzamide] | 19 pM |
| CC(C)N1CCC(Nc2ccc(S(=O)(=O)NC(=O)c3ccc(N4CCN(CC5=C(c6ccc(Cl)cc6)CC(C)(C)CC5)CC4)cc3Oc3ccccc3Cl)cc2[N+](=O)[O-])CC1 [Example 41, 2-(2-chlorophenoxy)-4-(4-((2-(4-chlorophenyl)-4,4-dimethylcyclohex-1-en-1-yl)methyl)piperazin-1-yl)-N-((4-((1-isopropylpiperidin-4-yl)amino)-3-nitrophenyl)sulfonyl)benzamide] | 27 pM |
| CN1CCC(Nc2ccc(S(=O)(=O)NC(=O)c3ccc(N4CCN(CC5=C(c6ccc(Cl)cc6)CCCC5)CC4)cc3Oc3ccccc3Cl)cc2[N+](=O)[O-])CC1 [Example 43, 2-(2-chlorophenoxy)-4-(4-((2-(4-chlorophenyl)cyclohex-1-en-1-yl)methyl)piperazin-1-yl)-N-((4-((1-methylpiperidin-4-yl)amino)-3-nitrophenyl)sulfonyl)benzamide] | 34 pM |
| Cc1n[nH]c2cccc(Oc3cc(N4CCN(CC5=C(c6ccc(Cl)cc6)CC(C)(C)CC5)CC4)ccc3C(=O)NS(=O)(=O)c3ccc(NCCCN4CCOCC4)c([N+](=O)[O-])c3)c12 [Example 44, 4-(4-((2-(4-chlorophenyl)-4,4-dimethylcyclohex-1-en-1-yl)methyl)piperazin-1-yl)-2-((3-methyl-1H-indazol-4-yl)oxy)-N-((4-((3-morpholin-4-ylpropyl)amino)-3-nitrophenyl)sulfonyl)benzamide] | 36 pM |
| CN1CCC(Nc2ccc(S(=O)(=O)NC(=O)c3ccc(N4CCN(CC5=C(c6ccc(Cl)cc6)CC(C)(C)CC5)CC4)cc3Oc3cccc(F)c3F)cc2[N+](=O)[O-])CC1 [Example 45, 4-(4-((2-(4-chlorophenyl)-4,4-dimethylcyclohex-1-en-1-yl)methyl)piperazin-1-yl)-2-(2,3-difluorophenoxy)-N-((4-((1-methylpiperidin-4-yl)amino)-3-nitrophenyl)sulfonyl)benzamide] | 47 pM |
| CN1CCC(Nc2ccc(S(=O)(=O)NC(=O)c3ccc(N4CCN(CC5=C(c6ccc(Cl)cc6)CC(C)(C)CC5)CC4)cc3Oc3cccc(Br)c3)cc2[N+](=O)[O-])CC1 [Example 46, 2-(3-bromophenoxy)-4-(4-((2-(4-chlorophenyl)-4,4-dimethylcyclohex-1-en-1-yl)methyl)piperazin-1-yl)-N-((4-((1-methylpiperidin-4-yl)amino)-3-nitrophenyl)sulfonyl)benzamide] | 47 pM |
| CCN1CCC(Nc2ccc(S(=O)(=O)NC(=O)c3ccc(N4CCN(CC5=C(c6ccc(Cl)cc6)CC(C)(C)CC5)CC4)cc3Oc3ccccc3Cl)cc2[N+](=O)[O-])CC1 [Example 47, 2-(2-chlorophenoxy)-4-(4-((2-(4-chlorophenyl)-4,4-dimethylcyclohex-1-en-1-yl)methyl)piperazin-1-yl)-N-((4-((1-ethylpiperidin-4-yl)amino)-3-nitrophenyl)sulfonyl)benzamide] | 50 pM |
| CN1C(C)(C)CC(Nc2ccc(S(=O)(=O)NC(=O)c3ccc(N4CCN(CC5=C(c6ccc(Cl)cc6)CC(C)(C)CC5)CC4)cc3Oc3ccccc3Cl)cc2[N+](=O)[O-])CC1(C)C [Example 48, 2-(2-chlorophenoxy)-4-(4-((2-(4-chlorophenyl)-4,4-dimethylcyclohex-1-en-1-yl)methyl)piperazin-1-yl)-N-((3-nitro-4-((1,2,2,6,6-pentamethylpiperidin-4-yl)amino)phenyl)sulfonyl)benzamide] | 53 pM |
| CC1(C)CCC(CN2CCN(c3ccc(C(=O)NS(=O)(=O)c4ccc(NC5CCN(C6CCOCC6)CC5)c([N+](=O)[O-])c4)c(Oc4cccc(F)c4F)c3)CC2)=C(c2ccc(Cl)cc2)C1 [Example 49, 4-(4-((2-(4-chlorophenyl)-4,4-dimethylcyclohex-1-en-1-yl)methyl)piperazin-1-yl)-2-(2,3-difluorophenoxy)-N-((3-nitro-4-((1-tetrahydro-2H-pyran-4-ylpiperidin-4-yl)amino)phenyl)sulfonyl)benzamide] | 62 pM |
| CN1CCC(Nc2ccc(S(=O)(=O)NC(=O)c3ccc(N4CCN(CC5=C(c6ccc(Cl)cc6)CC(C)(C)CC5)CC4)cc3Oc3cc(F)c4[nH]ccc4c3)cc2[N+](=O)[O-])CC1 [Example 50, 4-(4-((2-(4-chlorophenyl)-4,4-dimethylcyclohex-1-en-1-yl)methyl)piperazin-1-yl)-2-((7-fluoro-1H-indol-5-yl)oxy)-N-((4-((1-methylpiperidin-4-yl)amino)-3-nitrophenyl)sulfonyl)benzamide] | 62 pM |
| CC1(C)CCC(CN2CCN(c3ccc(C(=O)NS(=O)(=O)c4ccc(NCCCN5CCOCC5)c([N+](=O)[O-])c4)c(Oc4cccc(F)c4F)c3)CC2)=C(c2ccc(Cl)cc2)C1 [Example 51, 4-(4-((2-(4-chlorophenyl)-4,4-dimethylcyclohex-1-en-1-yl)methyl)piperazin-1-yl)-2-(2,3-difluorophenoxy)-N-((4-((3-morpholin-4-ylpropyl)amino)-3-nitrophenyl)sulfonyl)benzamide] | 66 pM |
| CC1(C)CCC(CN2CCN(c3ccc(C(=O)NS(=O)(=O)c4ccc(NCCCN5CCOCC5)c([N+](=O)[O-])c4)c(Oc4ccc(N)c(Cl)c4)c3)CC2)=C(c2ccc(Cl)cc2)C1 [Example 52, 2-(4-amino-3-chlorophenoxy)-4-(4-((2-(4-chlorophenyl)-4,4-dimethylcyclohex-1-en-1-yl)methyl)piperazin-1-yl)-N-((4-((3-morpholin-4-ylpropyl)amino)-3-nitrophenyl)sulfonyl)benzamide] | 72 pM |
